Data taken from patent US8846704B2, “Thiopyrimidine-based compounds and uses thereof” (YM Biosciences Austraila Pty Ltd, priority 2007, dated 2014).

Experiments:
[1] = system: BaF3 wild-type cells; assay: Cellular screening, BaF3 wild-type cells, Alamar Blue; assay type: cell-based; conditions: Mus musculus, 40 hr, read-out: BAF3wt IC50_nM
Outline: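 Cells were cultured in DMEM with 10% FCS and 10% WEHI 3B conditioned medium, and suspensions were prepared at 1.1× final (50,000–200,000 cells/mL). Compounds from 20 μM dilution plates were added at 10× final and incubated for 40 hr at 37° C, 5% CO2. Alamar Blue was then added for 4–6 hours and read at 544 nm.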

[2] = target: T1, human JAK3 (Homo sapiens, UniProt P52333); assay: Alphascreen tyrosine kinase enzyme assay, JAK3 kinase domain; assay type: biochemical; conditions: read-out: JAK3 IC50_nM
T1 construct: The kinase domain of human JAK3 was amplified; GST (N); made in house; host or cells: Sf9 insect cells (baculovirus)
Outline: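 GST-affinity-purified human JAK3 kinase domain (baculovirus/Sf9) was pre-incubated 20 min with compound ([…]) in HEPES pH 7.5 buffer with MgCl2, vanadate and Tween 20. Biotinylated peptide substrate ([…]) and ATP were then added; phosphotyrosine was detected by AlphaScreen PY100 acceptor and streptavidin donor beads after 2–3 h.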

T1 sequence (P52333 822-1111 limits assumed): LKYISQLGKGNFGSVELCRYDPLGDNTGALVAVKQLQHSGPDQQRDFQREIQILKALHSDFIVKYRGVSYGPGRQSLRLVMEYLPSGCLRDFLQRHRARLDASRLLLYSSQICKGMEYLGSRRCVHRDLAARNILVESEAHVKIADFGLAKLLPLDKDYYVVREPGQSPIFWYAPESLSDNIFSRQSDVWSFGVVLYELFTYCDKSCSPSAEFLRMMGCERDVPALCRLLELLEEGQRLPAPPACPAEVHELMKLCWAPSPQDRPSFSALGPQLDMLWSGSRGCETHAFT

Row | SMILES | IC50 [1] [µM] | IC50 [2] [nM]
1 | Cc1cnc(Nc2ccc(N3CCOCC3)cc2)nc1Sc1ccc(N2C(=O)COCC2=O)cc1 [Compound 190, 4-(4-(5-methyl-2-(4-morpholinophenylao)pyrimidin-4-ylthio)phenyl)morpholine-3,5-dione] | > 20 | < 100
2 | NC(=O)c1ccc(Sc2ccnc(Nc3ccc(N4CCOCC4)cc3)n2)cc1 [Compound 207, 4-(2-(4-morpholinophenylao)pyrimidin-4-ylthio)benzamide] | – | < 500
3 | N#Cc1ncn(Cc2ccc(Sc3ccnc(Nc4ccc(N5CCOCC5)cc4)n3)cc2)c1N [Compound 202, 5-ao-1-(4-(2-(4-morpholinophenylao)pyrimidin-4-ylthio)benzyl)-1H-imidazole-4-carbonitrile] | < 20 | < 500
4 | Cc1cnc(Nc2cccc(NS(C)(=O)=O)c2)nc1Sc1ccc(CO)cc1 [Compound 226, N-(3-(4-(4-(hydroxymethyl)phenylthio)-5-methylpyrimidin-2-ylao)phenyl)methanesulfonamide] | – | < 500
5 | Cc1cnc(Nc2ccc(N3CCOCC3)cc2)nc1Sc1ccc(C(C#N)N2CCOCC2)cc1 (stereo not drawn) [Compound 223, 2-(4-(5-methyl-2-(4-morpholinophenylao)pyrimidin-4-ylthio)phenyl)-2-morpholinoacetonitrile] | < 5 | < 500
6 | Cc1cnc(Nc2ccc(N3CCOCC3)cc2)nc1Sc1ccc(CC#N)cc1 [Compound 222, 2-(4-(5-methyl-2-(4-morpholinophenylao)pyrimidin-4-ylthio)phenyl)acetonitrile] | > 20 | < 500
7 | CON(C)C(=O)c1ccc(Sc2nc(Nc3ccc(N4CCOCC4)cc3)ncc2C)cc1 [Compound 218, N-methoxy-N-methyl-4-(5-methyl-2-(4-morpholinophenylao)pyrimidin-4-ylthio)benzamide] | > 20 | < 500
8 | Cc1cnc(Nc2ccc(N3CCOCC3)cc2)nc1Sc1ccc(NC2CCOC2=O)cc1 (stereo not drawn) [Compound 228, 3-(4-(5-methyl-2-(4-morpholinophenylao)pyrimidin-4-ylthio)phenylao)dihydrofuran-2(3H)-one] | > 20 | < 100
9 | Cc1cnc(Nc2ccc(N3CCOCC3)cc2)nc1Sc1ccc(NC(=O)CO)cc1 [Compound 229, 2-hydroxy-N-(4-(5-methyl-2-(4-morpholinophenylao)pyrimidin-4-ylthio)phenyl)acetamide] | < 20 | < 500
10 | C=CC(=O)Nc1cccc(Nc2nccc(SC)n2)c1 [Compound 7, N-(3-(4-(methylthio)pyrimidin-2-ylao)phenyl)acrylamide] | < 20 | < 100
11 | N#Cc1c(N)ncn1Cc1cccc(Sc2ccnc(Nc3ccc(N4CCOCC4)cc3)n2)c1 [Compound 199, 4-ao-1-(3-(2-(4-morpholinophenylao)pyrimidin-4-ylthio)benzyl)-1H-imiazole-5-carbonitrile] | < 20 | < 500
12 | Cc1cnc(Nc2ccc(N3CCOCC3)cc2)nc1Sc1cccc(CO)c1 [Compound 212, (3-(5-methyl-2-(4-morpholinophenylao)pyrimidin-4-ylthio)phenyl)methanol] | > 20 | < 500
13 | N#CCc1ccc(Sc2ccnc(Nc3ccc(N4CCOCC4)cc3)n2)cc1 [Compound 210, 2-(4-(2-(4-morpholinophenylao)pyrimidin-4-ylthio)phenyl)acetonitrile] | > 20 | < 500
14 | N#Cc1c(N)ncn1Cc1ccc(Sc2ccnc(Nc3ccc(N4CCOCC4)cc3)n2)cc1 [Compound 203, 4-ao-1-(4-(2-(4-morpholinophenylao)pyrimidin-4-ylthio)benzyl)-1H-imidazole-5-carbonitrile] | < 1 | < 500
15 | Cc1cnc(Nc2ccc(N3CCOCC3)cc2)nc1Sc1ccc(C=O)cc1 [Compound 219, 4-(5-methyl-2-(4-morpholinophenylao)pyrimidin-4-ylthio)benzaldehyde] | < 5 | < 500
16 | Cc1cnc(Nc2ccc(N3CCOCC3)cc2)nc1Sc1ccc(C(=O)N2CCCC2)cc1 [Compound 224, (4-(5-methyl-2-(4-morpholinophenylao)pyrimidin-4-ylthio)phenyl)(pyrrolidin-1-yl)methanone] | < 20 | < 500
17 | Cc1cnc(Nc2ccc(N3CCOCC3)cc2)nc1Sc1ccc(C(C#N)N2CCN(C)CC2)cc1 (stereo not drawn) [Compound 225, 2-(4-(5-methyl-2-(4-morpholinophenylao)pyrimidin-4-ylthio)phenyl)-2-(4-methylpiperazin-1-yl)acetonitrile] | < 5 | < 500
18 | Cc1cnc(Nc2cccc(S)c2)nc1Sc1ccc(NC(=O)CCl)cc1 [Compound 195, 2-chloro-N-(4-(2-(3-mercaptophenylao)-5-methylpyrimidin-4-ylthio)phenyl)acetamide] | > 20 | < 100
19 | Cc1cnc(Nc2ccc(N3CCOCC3)cc2)nc1Sc1ccc(N2CCSCC2=O)cc1 [Compound 197, 4-(4-(5-methyl-2-(4-morpholinophenylao)pyrimidin-4-ylthio)phenyl)thiomorpholin-3-one] | > 20 | < 100
20 | Cc1cnc(Nc2ccc(N3CCOCC3)cc2)nc1Sc1ccc(CO)cc1 [Compound 220, (4-(5-methyl-2-(4-morpholinophenylao)pyrimidin-4-ylthio)phenyl)methanol] | < 5 | < 100
21 | c1cc(Sc2ccc(Cn3cncn3)cc2)nc(Nc2ccc(N3CCOCC3)cc2)n1 [Compound 204, 4-(4-((1H-1,2,4-triazol-1-yl)methyl)phenylthio)-N-(4-morpholinophenyl)pyrimidin-2-ae] | < 20 | < 500
22 | Cc1cnc(Nc2ccc(O)cc2)nc1Sc1ccc(N)cc1 [Compound 191, 4-(4-(4-aophenylthio)-5-methylpyrimidin-2-ylao)phenol] | < 5 | < 500
